Data taken from US4405743A, “Pyrazolylpyrimidine derivatives” (Hokko Chemical Industry Co., Ltd., priority 1981, dated 1983).
Where two headings read alike, the source gives them in different places.

Tests used:
[1] = tested on: Pyricularia oryzae; format: in vivo, Pyricularia oryzae on rice plant (variety: Asahi); settings: rice blast, prevention; 200 ppm; 5 days after inoculation
[2] = tested on: Pyricularia oryzae; format: in vivo, Pyricularia oryzae on rice plant (variety: Asahi); settings: rice blast, curative treatment; sprayed liquid 200 ppm; 5 days after spraying
[3] = tested on: Cochliobolus miyabeanus; experiment: Effect of controlling rice brown spot, Experimental Example 3; format: in vivo, Cochliobolus miyabeanus on rice plant (variety: Asahi); settings: sprayed liquid 500 ppm, 5 days after inoculation
[4] = tested on: Sphaerotheca friliginea; experiment: Effect of controlling cucumber powdery mildew, Experimental Example 4; format: in vivo; settings: sprayed liquid 200 ppm, 10 days after inoculation
Method: 10 ml of each of test liquids diluted to a predetermined concentration was sprayed over seedlings of a cucumber plant (variety: Sagami Hanpaku) grown up to the first leaf stage which has been soil cultured in an unglazed pot with a diameter of 9 cm in a green house. After allowing to stand overnight, the seedlings were sprayed for inoculation with a spore suspension of Sphaerotheca friliginea. Ten days after the inoculation, the rate of a lesion area (%) was checked and a control value was evaluated from the following equation. The degree of chemical injury against a cucumber plant was determined in the same manner as in Experimental Example.

[5] = tested on: rice plant; settings: blast prevention test, 200 ppm
[6] = tested on: rice plant; settings: blast curative test, 200 ppm
[7] = tested on: rice plant; settings: in vivo
[8] = tested on: cucumber plant; settings: in vivo

Compound | Control Value [1] | Control Value [2] | Control Value [3] | Control Value [4] | Degree of chemical injury [5] | Degree of chemical injury [6] | Degree of chemical injury [7] | Degree of chemical injury [8]
Cc1cc(C)n(-c2nc(C)c(C)c(Sc3ccccc3)n2)n1 [Compound 39] | 100% | 100% | 78% | 100% | 0 | 0 | 0 | 0
Cc1cc(C)c(C)c(Oc2cc(C)nc(-n3nc(C)cc3C)n2)c1 [Compound 30] | 100% | 100% | 87% | 92% | 0 | 0 | 0 | 0
CCCCc1c(C)nc(-n2nc(C)cc2C)nc1Sc1ccccc1 [Compound 44] | 100% | 92% | 91% | 94% | 0 | 0 | 0 | 0
CCOc1nc(-n2nc(C)cc2C)nc(C)c1C [Compound 36] | 100% | 99% | 100% | 93% | 0 | 9 | 0 | 0
CCSc1ccnc(-n2nc(C)cc2C)n1 [Compound 2] | 100% | 100% | 94% | 88% | 0 | 0 | 0 | 0
CCCc1c(C)nc(-n2nc(C)cc2C)nc1OC [Compound 40] | 100% | 100% | 81% | 97% | 0 | 0 | 0 | 0
Cc1cc(Oc2ccc(Cl)cc2Cl)nc(-n2nc(C)cc2C)n1 [Compound 23] | 100% | 86% | 84% | 82% | 0 | 0 | 0 | 0
Cc1cc(Oc2ccccc2C)nc(-n2nc(C)cc2C)n1 [Compound 11] | 100% | 100% | 100% | 90% | 0 | 0 | 0 | 0
Cc1cc(Sc2ccc(Cl)cc2)nc(-n2nc(C)cc2C)n1 [Compound 5] | 100% | 100% | 100% | 85% | 0 | 0 | 0 | 0
CCSc1nc(-n2nc(C)cc2C)nc(C)c1C [Compound 37] | 100% | 81% | 93% | 100% | 0 | 0 | 0 | 0
CCCCCCc1cc(SCC)nc(-n2nc(C)cc2C)n1 [Compound 45] | 92% | 90% | 88% | 91% | 0 | 0 | 0 | 0
CCCCCCc1cc(Oc2ccc(Cl)cc2)nc(-n2nc(C)cc2C)n1 [Compound 47] | 100% | 100% | 90% | 79% | 0 | 0 | 0 | 0
Cc1cc(Oc2ccc(C(C)(C)C)cc2)nc(-n2nc(C)cc2C)n1 [Compound 15] | 100% | 100% | 81% | 91% | 0 | 0 | 0 | 0
Cc1cc(Oc2ccccc2Cl)nc(-n2nc(C)cc2C)n1 [Compound 6] | 100% | 88% | 100% | 100% | 0 | 0 | 0 | 0
COc1ccc(Oc2cc(C)nc(-n3nc(C)cc3C)n2)cc1 [Compound 17] | 100% | 100% | 100% | 100% | 0 | 0 | 0 | 0
Cc1cc(Oc2cccc(Cl)c2)nc(-n2nc(C)cc2C)n1 [Compound 7] | 100% | 100% | 100% | 100% | 0 | 0 | 0 | 0
Cc1cc(Oc2ccc(C(C)C)cc2)nc(-n2nc(C)cc2C)n1 [Compound 14] | 100% | 92% | 94% | 100% | 0 | 0 | 0 | 0
Cc1cc(C)n(-c2ncc(C)c(Oc3ccccc3)n2)n1 [Compound 34] | 92% | 100% | 98% | 100% | 0 | 0 | 0 | 0
Cc1ccc(C)c(Oc2cc(C)nc(-n3nc(C)cc3C)n2)c1 [Compound 28] | 100% | 98% | 100% | 100% | 0 | 0 | 0 | 0
CCOc1ccnc(-n2nc(C)cc2C)n1 [Compound 1] | 100% | 100% | 99% | 90% | 0 | 0 | 0 | 0
Cc1cc(Oc2ccc(F)cc2)nc(-n2nc(C)cc2C)n1 [Compound 9] | 100% | 100% | 100% | 100% | 0 | 0 | 0 | 0
Cc1cc(C)n(-c2nccc(Oc3ccccc3)n2)n1 [Compound 3] | 100% | 98% | 100% | 94% | 0 | 0 | 0 | 0
CCCCc1c(C)nc(-n2nc(C)cc2C)nc1Oc1ccccc1 [Compound 43] | 100% | 86% | 94% | 82% | 0 | 0 | 0 | 0
CCCCCCc1cc(Sc2ccccc2)nc(-n2nc(C)cc2C)n1 [Compound 46] | 84% | 99% | 99% | 83% | 0 | 0 | 0 | 0
CCSc1nc(-n2nc(C)cc2C)ncc1C [Compound 33] | 100% | 82% | 82% | 94% | 0 | 0 | 0 | 0
